According to ChEMBL document CHEMBL4266030, “Molecular Basis for Multiple Omapatrilat Binding Sites within the ACE C-Domain: Implications for Drug Design” (J Med Chem, 2018):

Key:
[1] = target: T1, Angiotensin-converting enzyme (Homo sapiens, UniProt P12821); assay: Inhibition of human fully glycosylated ACE N-terminal domain expressed in CHO cells using MCA-RPPGFSAFK(Dnp)-OH as substrate preincubated for 15 mins followed by substrate addition measured after 10 mins by fluorescence spectrophotometric analysis
T1 sequence (P12821 whole entry, the tested form may be a part): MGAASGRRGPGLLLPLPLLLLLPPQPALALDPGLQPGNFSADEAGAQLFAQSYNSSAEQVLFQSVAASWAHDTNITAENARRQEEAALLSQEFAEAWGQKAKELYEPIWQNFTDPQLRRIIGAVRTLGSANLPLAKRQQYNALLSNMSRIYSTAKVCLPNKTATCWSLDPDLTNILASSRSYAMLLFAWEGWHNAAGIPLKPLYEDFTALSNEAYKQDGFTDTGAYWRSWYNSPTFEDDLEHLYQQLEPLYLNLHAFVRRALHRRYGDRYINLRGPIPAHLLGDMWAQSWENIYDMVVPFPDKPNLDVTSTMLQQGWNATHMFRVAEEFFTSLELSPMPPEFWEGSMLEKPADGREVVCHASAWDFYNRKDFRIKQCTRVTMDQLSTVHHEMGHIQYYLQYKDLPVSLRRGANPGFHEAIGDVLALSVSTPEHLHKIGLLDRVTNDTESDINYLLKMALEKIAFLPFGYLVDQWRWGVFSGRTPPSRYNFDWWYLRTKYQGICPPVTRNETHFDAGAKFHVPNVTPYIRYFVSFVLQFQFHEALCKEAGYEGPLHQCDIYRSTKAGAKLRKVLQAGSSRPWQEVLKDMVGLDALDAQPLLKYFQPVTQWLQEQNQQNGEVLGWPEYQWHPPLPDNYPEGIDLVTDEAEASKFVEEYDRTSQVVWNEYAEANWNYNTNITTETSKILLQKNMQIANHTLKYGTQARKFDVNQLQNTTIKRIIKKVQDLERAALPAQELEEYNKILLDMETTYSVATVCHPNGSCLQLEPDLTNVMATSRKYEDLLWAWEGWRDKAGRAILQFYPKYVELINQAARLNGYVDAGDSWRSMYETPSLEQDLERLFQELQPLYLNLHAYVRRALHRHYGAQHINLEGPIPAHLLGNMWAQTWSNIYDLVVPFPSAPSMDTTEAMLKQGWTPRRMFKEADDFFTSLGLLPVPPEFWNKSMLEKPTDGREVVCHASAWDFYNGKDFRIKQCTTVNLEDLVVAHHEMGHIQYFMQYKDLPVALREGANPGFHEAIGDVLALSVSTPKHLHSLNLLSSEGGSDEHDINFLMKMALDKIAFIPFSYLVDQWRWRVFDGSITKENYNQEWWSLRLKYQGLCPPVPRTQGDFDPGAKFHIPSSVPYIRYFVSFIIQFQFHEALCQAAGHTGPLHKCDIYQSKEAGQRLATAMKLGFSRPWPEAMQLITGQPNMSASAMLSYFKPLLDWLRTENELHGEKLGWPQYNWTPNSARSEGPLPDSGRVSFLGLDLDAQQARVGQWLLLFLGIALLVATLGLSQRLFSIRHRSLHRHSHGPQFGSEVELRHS

[2] = target: T1, Angiotensin-converting enzyme; assay: Inhibition of human fully glycosylated ACE C-terminal domain expressed in CHO cells using Cbz-Phe-His-Leu as substrate preincubated for 15 mins followed by substrate addition measured after 10 mins by fluorescence spectrophotometric analysis
[3] = target: T1, Angiotensin-converting enzyme; assay: Inhibition of human fully glycosylated ACE C-terminal domain expressed in CHO cells using MCA-RPPGFSAFK(Dnp)-OH as substrate preincubated for 15 mins followed by substrate addition measured after 10 mins by fluorescence spectrophotometric analysis
[4] = target: T1, Angiotensin-converting enzyme; assay: Inhibition of human fully glycosylated ACE N-terminal domain expressed in CHO cells using Cbz-Phe-His-Leu as substrate preincubated for 15 mins followed by substrate addition measured after 10 mins by fluorescence spectrophotometric analysis
[5] = target: T1, Angiotensin-converting enzyme; assay: Inhibition of human fully glycosylated ACE N-terminal domain expressed in CHO cells using Cbz-Phe-His-Leu as substrate preincubated for 15 mins followed by substrate addition measured after 10 mins by Morrison's plot analysis
[6] = target: T1, Angiotensin-converting enzyme; assay: Inhibition of human fully glycosylated ACE C-terminal domain expressed in CHO cells using Cbz-Phe-His-Leu as substrate preincubated for 15 mins followed by substrate addition measured after 10 mins by Morrison's plot analysis

IC50 [1] | IC50 [2] | IC50 [3] | IC50 [4] | Ki [5] | Ki [6] | Structure (SMILES)
2100 nM | 2800 nM | 1800 nM | 2200 nM | – | – | O=C(N[C@H]1CCS[C@H]2CCC[C@@H](C(=O)O)N2C1=O)[C@H](Cc1ccccc1)SS[C@@H](Cc1ccccc1)C(=O)N[C@H]1CCS[C@H]2CCC[C@@H](C(=O)O)N2C1=O
– | – | – | – | 0.015 nM | 0.016 nM | O=C(N[C@H]1CCS[C@H]2CCC[C@@H](C(=O)O)N2C1=O)[C@@H](S)Cc1ccccc1 [OMAPATRILAT]
